The values below come from patent US20180071313A1, “DRY EYE THERAPEUTIC AGENT […] ESTER THEREOF OR M[…] ESTER THEREOF AS AN ACTIVE INGREDIENT” (SANTEN PHARMACEUTICAL CO., LTD., priority 2015, published 2018).

SMILES strings stand for the structures.

The nature of data set [1]: Pharmacokinetics Study (2): nandrolone concentration in the lacrimal glands after nandrolone decanoate to eyelid skin or instillation. To be noted: 2, 4, 8, 24 hours, LC-MS/MS, FIG. 2. It counts as in vivo, Rabbits (Japanese White, males). The protocol:
A study was conducted for change over time of nandrolone concentration in the lacrimal glands after administration of nandrolone decanoate to eyelid skin, or instillation thereof.
0.4 g of nandrolone decanoate were added to castor oil followed by bringing to a volume of 20 mL and dissolving therein to prepare an ointment containing 2% (w/v) of nandrolone decanoate. In addition, a preparation of the same composition was used as an ophthalmic solution containing nandrolone decanoate.
Rabbits (Japanese White, males, purchased from Kitayama Labes Co., Ltd.) were used in the study. Fur of the right upper eyelid was shaved by using an electric hair clipper under general anesthesia on the day before drug administration followed by fitting the rabbits with Elizabethan collars prior to administration. […]
The rabbits were euthanized at 2, 4, 8 and 24 hours after administration and the right upper lacrimal gland tissue was excised (from 3 animals at each time). The lacrimal gland tissue was homogenized in methanol and the concentration of nandrolone (active form of nandrolone decanoate) in the centrifuged supernatant was measured by LC-MS/MS. The concentration of nandrolone in the lacrimal gland tissue was calculated from the wet weight of the tissue measured prior to homogenization and the concentration of nandrolone in the measured specimen.

For data set [2], the system named is lipophilin CL2 (L-CL2) gene. Nature of the data set: Pharmacological Study (2): expression level of lipophilin CL2 (L-CL2) gene in lacrimal gland cells, quantitative PCR. The conditions noted are these: isolated rabbit lacrimal gland cells, drug culture for 2 days, 0.1% DMSO; FIG. 3. The format is cell-based, rabbits (Japanese White, females). Here is the method: A comparative study of the action of increasing the expression level of lipophilin CL2 (L-CL2) gene by both nandrolone decanoate and methenolone acetate was conducted by allowing both drugs to act on lacrimal gland tissue cells. Furthermore, lipophilins are proteins that are synthesized in the lacrimal gland and are observed to be present in large amounts in the tears of humans and rabbits.
Each drug was dissolved in DMSO followed by diluting with DMEM/F-12 (D/F medium) to a final DMSO concentration of 0.1%. […]
Quantitative PCR was carried out by using primers designed by respectively joining to cDNA synthesized from the drug-treated lacrimal gland cells using the CellAmp Direct RNA Prep Kit and PrimeScript RT MasterMix (both manufactured by Takara Bio, Inc.), the QuantiFast SYBR Green PCR Kit (Qiagen Corp.), Rabbit L-CL2 gene (Accession No.: NM_001082095) and Rabbit GAPDH gene (Accession No.: NM_001082253). The expression level of L-CL2 gene of each of the drug-treated cells was corrected with expression of each GAPDH gene and expressed as the relative ratio to the expression level of cells treated with base (D/F medium containing 0.1% DMSO).

The test system of a further data set is TL in tears. Nature of the data set: Pharmacological Study (1): amount of TL in tears after administration to eyelid skin. To be noted: cream 1% (w/v), eyelid skin of one eye, once per day 40 μL, two weeks after application vs before; rabbits with lower lacrimal gland and nictitating membrane excised, ketoconazole; mean ± standard error, n=4. The format is in vivo, Rabbits (Japanese White, females). The protocol:
A study was conducted in rabbits as to whether or not the administration of nandrolone decanoate and methenolone acetate to eyelid skin increases the amount of TL in tears.
A cream containing 1% (w/v) of nandrolone decanoate, a cream containing 1% (w/v) of methenolone acetate and a base were prepared in the manner of the compositions indicated in Table 1.
Rabbits (Japanese White, females, purchased from Kitayama Labes Co., Ltd.) were used in the study. […]
Schirmer test paper (Showa Yakuhin Kako Co., Ltd.) was inserted into the conjunctival sac of the lower eyelid before application and two weeks after application to collect tears, followed by subjecting each of the collected tear specimens to slab gel electrophoresis. Following electrophoresis, the gel was stained with Coomassie Brilliant Blue stain, all protein bands, including the TL band at a molecular weight of about 17 kilodaltons, were detected, and the percentage of TL (% TL) in the total amount of protein present in the tears was calculated by image analysis of the resulting gel. The difference between the % TL before application and the % TL after application was determined for each individual and expressed as an increase in % TL (A % TL).

On to `CCCCCCCCCC(=O)O[C@H]1CC[C@H]2[C@@H]3CCC4=CC(=O)CC[C@@H]4[C@H]3CC[C@]12C` [Nandrolone decanoate, 17β-decanoyloxy-19-nor-4-androsten-3-one], for which the “concentration of nandrolone in the lacrimal gland over time” value is “somewhat lower than the concentration of methenolone in lacrimal gland tissue after administration of methenolone acetate to eyelid skin” in data set [1] (single 50 μL ointment 2% (w/v) nandrolone decanoate to right upper eyelid skin) and “much lower than in the case of administration to eyelid skin” in data set [1] (single 50 μL ophthalmic solution 2% (w/v) nandrolone decanoate by instillation into right eye). The “expression of L-CL2 gene (corrected with GAPDH, relative ratio to base-treated cells)” value in data set [2] is listed as “increases expression of L-CL2 gene in lacrimal gland cells”. Besides, the “Δ % TL (increase in percentage of TL in total tear protein)” value in the data set with TL in tears worked out at 4.30 ± 0.473%.
